Data as given in PubChem BioAssay (NCI).
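All cell lines were grown in 96-well plates and treated with compound for 48 hours. TGI: total growth inhibition.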

Tests used:
Experiment in all cases: inhibition of tumour cell growth, NCI panel, 48 h
[1] = test system: CAKI-1 renal
[2] = test system: TK-10 renal
[3] = test system: BT-549 breast
[4] = test system: NCI-H460 lung
[5] = test system: UACC-257 melanoma
[6] = test system: EKVX NSCLC
[7] = test system: MALME-3M melanoma
[8] = test system: HOP-62 NSCLC
[9] = test system: SNB-75 CNS
[10] = test system: SF-539 CNS
[11] = test system: MDA-N
[12] = test system: SK-MEL-5 melanoma
[13] = test system: RPMI-8226 leukemia
[14] = test system: HCT-116 colon
[15] = test system: K-562 leukemia

Compound	TGI [1] [µM]	TGI [2] [µM]	TGI [3] [µM]	TGI [4] [µM]	TGI [5] [µM]	TGI [6] [µM]	TGI [7] [µM]	TGI [8] [µM]	TGI [9] [µM]	TGI [10] [µM]	TGI [11] [µM]	TGI [12] [µM]	TGI [13] [µM]	TGI [14] [µM]	TGI [15] [µM]
O=C1NC2ON=C(c3ccccc3)C2C2ON=C(c3ccccc3)N12 (stereo unspecified)	> 100	> 100	> 100	> 100	> 100	> 100	> 100	> 100	> 100	> 100	> 100	> 100			
C/C(CC(=O)Nc1ccc([N+](=O)[O-])cc1)=N\NC(N)=O	> 100	> 100		> 100	> 100	> 100	> 100	> 100	> 100	> 100		> 100	> 69.5	> 100	> 100
O=C(ON=C1c2ccccc2C(Br)C(Br)c2ccccc21)c1cc([N+](=O)[O-])cc([N+](=O)[O-])c1 (stereo unspecified)	47.9	45.8		38.2	33.2	59.8	33	34.3	30.2	32.8	48.8	30.7	37	32.5	45.3
NC(=O)N/N=C(\CC1OC(=O)c2ccccc21)c1ccco1 (stereo unspecified)	> 100	> 100		> 100	> 100	> 100	> 100		> 100	> 100		> 100		> 100	> 100
CC(=O)OC1COC(n2c(O)c(N=NC(N)=S)c3cc(Br)ccc32)C(OC(C)=O)C1OC(C)=O (stereo unspecified)	> 100	> 100		> 100	> 100	> 100	> 100	> 100		> 100		> 100	> 100	> 100	> 100
CCOC(=O)NC(=O)c1cn(CCOC(=O)CCCCCCCCC(=O)OCCn2cc(C(=O)NC(=O)OCC)c(=O)[nH]c2=O)c(=O)[nH]c1=O	> 100	> 100		> 100	> 100	> 100	> 100	> 100	> 100	> 100		> 100	> 100	> 100	> 100
O=c1[nH]c2cc(Cl)ccc2nc1/C(=N\O)C(O)c1cccc([N+](=O)[O-])c1 (stereo unspecified)		> 100		> 100	> 100	> 100	> 100	> 100	> 100	> 100		> 100	> 100	> 100	> 100
CCCCNc1nc(C#N)c(N)s1	> 100	> 100		> 100	> 100		> 100	> 100	> 100	> 100			> 100	> 100	> 100
CNS(=O)(=O)NN(C)S(=O)(=O)c1ccccc1	> 100	> 100		> 100	> 100	> 100	> 100	> 100	> 100	> 100		> 100	> 100	> 100	> 100
CC(=O)OCC1=C(CCC#N)N2C(=O)C(NC(=O)Cc3cccs3)C2S(=O)C1 (stereo unspecified)	> 100	> 100		> 100	> 100	> 100	> 100	> 100	> 100	> 100		> 100	> 100	> 100	> 100
NC1=C(NC(=O)Cc2ccc(F)cc2)C(=O)c2ccccc2C1=O	> 100	59		> 100	> 100	> 100	> 100	> 87.6	52.5	> 100		> 100	> 100	> 91.1	> 100
C[N+](C)(C)CC(=O)N/N=C/c1oc(-c2c(O)ccc3ccccc23)c(-c2c(O)ccc3ccccc23)c1[N+](=O)[O-]	75.5	87.1		49.3	51.9	45	28.2		61.1	29.4		22.9	> 100	24.7	> 100
COc1ccc2c3c1O[C@]1(C)C34CCN(C)C(C2)C42C=C[C@@]1(OC)c1c(O)ccc(O)c12		> 100		> 100	> 100	> 100	> 100	> 100	> 100	> 100		> 100	> 100	> 100	> 100
COc1cc(O)c2c(=O)cc(-c3ccc(O)cc3O)oc2c1CC=C(C)C	32.5	74.3		27.7	86.6	73.6	33		46.1	34.7	61.5	47.9	> 100	32.4	> 100
O=C(CSc1nnc(-c2ccc(N=Cc3ccc(Cl)cc3)cc2)o1)Nc1ccccc1[N+](=O)[O-]		> 100		> 100	> 100	> 100	> 100	> 100	> 100			> 100	> 100	> 100	> 100
O=C1/C(=C/c2cccc(F)c2)CCCc2ccccc21	31.6	29.1	34.1	31.1	30.6	28.6	23.8	27.4	41.3	31.2			53.7	29	32.1
CC[C@]1(Cc2ccc(OC)c(OC)c2)C=[N+]([O-])O[C@H](OC2CCCC2(c2ccccc2)c2ccccc2)[C@@H]1OC(=O)c1ccccc1 (stereo partly specified)	> 100	> 33.4	> 100	> 100	> 66.5	> 23.8		62.3	> 37.9	> 100	> 100	12.7		> 100	> 100
